Laboratory results taken from patent US6906239B2, “Plant preparations” (priority 2002, dated 2005).

Assays:
white-rot fungus [1] = assay: White-rot fungus cultured on bagasse from treated sugar cane, lignin and chitin staining (Examples 5, 6, 8); type: cell-based, Phanerochaete chrysosporium; settings: for Staining intensity Chitin / Staining intensity Lignin: fungus cultured three months, scale 9 to 0
Excerpt: (§1) Phanerochaete chrysosporium, a lignin degrading fungus, was maintained on potato dextrose agar (PDA). Lignin degradation studies employed culturing the fungus in a liquid mineral salt medium that contained treated plant materials, such as bagasse from a plant that had been treated with a modified precursor preparation. The bagasse in the medium comprised the sole source of organic carbon for support of fungal growth. One inoculum “loop,” a standard tool used in the preparation and culturing of microbes, was used to inoculate the medium.
(§2) Staining intensity ratings were subjectively established on ten-point rating scales and used as qualitative rankings within each individual example. Unless otherwise indicated, staining for lignin present in bagasse was performed by both the phlorgluciol and hypochlorite/sulfite techniques and was rated subjectively on a ten-step scale, from most intense staining (9) to no staining (0). Staining for chitin present in the bagasse was also subjectively rated on a ten-step scale from most intense staining (9) to no staining (0). All staining techniques were performed in triplicate, unless otherwise indicated.
Technique 1: Place sections in a drop of saturated, aqueous phloroglucinol in 20% HCl. Lignin appears as deep red (9) to light purple (1).
Technique 2: Place sections in commercial hypochlorite bleach for five minutes and transfer to a 1% solution of sodium sulfite. Lignin appears as a bright red cherry color (9) that fades to brown (1) in approximately 1 hour.
Technique: Sections are autoclaved in saturated KOH for 10 minutes to convert chitin to chitosan. Washed sections are placed in a few drops of iodine-potassium iodide solution (2 gm KI in 100 ml water and add 0.2 gm I2) in 1% sulfuric acid. Abundant amounts of chitosans appear dark violet (9) and a lower concentration as a light blue stain (1). Care should be exercised since cellulose may also stain under these conditions. For this reason, if necessary, cellulose can be removed by flooding with Schweitzer's reagent (saturated copper hydroxide in ammonium hydroxide) prior to iodine-potassium iodide treatment.
In similar fashion to Example 4, sugar cane plants were treated at four weeks and also at two weeks before harvest, with five grams of the modified precursors described above, by drenching the sugar cane roots. Bagasse samples were then obtained and approximately 10 g used in the following experiment.
In this experiment, white-rot fungus was cultured on the bagasse samples for three months. Specifically, P. chrysosporium was maintained on PDA and then added to a liquid mineral salt medium that contained the treated plant materials, such as treated bagasse. One inoculum “loop,” a standard tool used in the preparation and culturing of microbes, was used to inoculate the bagasse-containing medium. The medium with the bagasse comprised the only sole source of organic carbon for support of fungal growth. After culturing the fungus on the bagasse stored in the liquid medium, the bagasse was collected from the medium and then stained for lignin and chitin.
Sugar cane plants were treated with either 0.5 g, 5 g or 50 g of 2,6-difluorocinnamic acid or 3-cholorcinnamic acid four weeks prior to harvest and also at two weeks prior to harvest. Thus, the total dosage of each modified precursor is either 1 g, 10 g, or 100 g. White-rot fungus was then cultured on the extracted bagasse samples for three months and lignin and chitin staining performed.
Glyphosine (Sigma Aldrich) is commercially available as a sugarcane ripener for use several weeks before harvest. In this example, glyphosine, at one-fourth the label rate (i.e., approximately 4 oz per acre), was added to 3-chlorocinnamic acid during drench treatments of 5 gm, both four weeks and two weeks prior to harvest. The label rate of glyphosine was 16 oz. White-rot fungus was cultured on the bagasse samples for three months according to the methodology described in Example 2.

Soil microorganisms [2] = assay: In situ soil degradation of bagasse from treated sugar cane (Example 9); settings: 10 grams drench at 4 and 2 weeks before harvest, buried in soil six months, scale 9 to 0
Excerpt: (§3) Fertile sandy loam topsoil in a cultivated field that had been used for the sequential cultivation of corn for the prior two years constituted the in situ environment. The field was located in the town Ingleside on the Eastern Shore of Maryland. The tissue burial and recovery work was completed in multiple marked plots.
as §2
Sugar cane plants were treated four weeks and two weeks before harvest with drench applications of 10 grams of one of the chemicals listed in Table 6, i.e., cinnamic acid, 2,6-difluorocinnamic acid, 3-chlorocinnamic acid or 2-chloro-4-hydroxybenzaldehyde. Approximately, 10 g of extracted bagasse samples were mixed equally with sand, and the mixture placed into a nylon sack and buried approximately 6 inches below the ground. The samples were buried in such a fashion for six months from the March through August time period. All staining was done in quintuplicate.

Soil microorganisms [3] = assay: In situ soil degradation of corn stalk from treated corn plants (Example 10); settings: two sprays of 20 mM, buried in soil six months, scale 9 to 0
Excerpt: Plants were cultivated in a greenhouse environment and modified precursors and control precursors were applied via a foliar spray. Treated plants were permitted to naturally mature, senesce and dry down. After dry down several centimeter long sections were taken from nodal and from internodal regions at the base of the stalk for further in situ soil treatment. After treatment, thin sections were made, stained and visually inspected. Observations were made with a dissecting or a light microscope.
as §3, §2
Treatment of corn plants included two sprays, both one month after seedling emergence and once at tasseling with a spray application of 20 mM of one of the chemicals listed in Table 7, i.e., cinnamic acid, 2,6-difluorocinnamic acid, 3-chlorocinnamic acid or 2-chloro-4-hydroxybenzaldehyde with a silicone spreader/sticker until runoff. Dried stalk samples were buried in soil, as described above, for six months from the March through August time period. All staining was done in quintuplicate.

white-rot fungus [4] = assay: White-rot fungus cultured on corn stalk fibrous extract from treated corn (Example 11); type: cell-based, Phanerochaete chrysosporium; settings: for Staining intensity Chitin / Staining intensity Lignin: corn stalk, fungus cultured three months, scale 9 to 0
Excerpt: as §1, §2
Glyphosate (Sigma Aldrich) is commercially available as a no-till herbicide for use with corn. In this example glyphosate at the one-fourth the label rate (i.e., approximately 3 oz per acre) was added to 3-chlorocinnamic acid. The label rate of glyphosate was 12 oz per acre. The glyphosate was applied through a spray treatment that included two sprays, both one month after seedling emergence and once at tasseling. The spray application was applied with a silicone spreader/sticker until runoff. White-rot fungus was cultured on potato dextrose agar and then use to inoculate a medium containing the corn stalk fibrous extract as described in Example 2 above. These samples were cultured under appropriate conditions for three months.

White rot fungus = White rot fungus cultured on plant samples treated with fungicidal candidates, lignin and chitin staining (Example 12 ii); type: cell-based, Phanerochaete chrysosporium; settings: 100 ppm four weeks before harvest, fungus cultured three months, scale 9 to 0
Method: as §2
Tulip tree, White Pine and corn plants were treated with fungicidal candidates four weeks before harvest. White rot fungus (Phanerochaete chrysosporium) was then cultured on the plant samples for three months. Staining and quantification of lignin and chitin present in plant materials was performed as described above.

[5] = sugar cane bagasse, 5 g drench at 4 and 2 weeks before harvest
[6] = total dosage 1 gm (0.5 g at 4 and 2 weeks before harvest)
[7] = total dosage 10 gm (5 g at 4 and 2 weeks before harvest)
[8] = total dosage 100 gm (50 g at 4 and 2 weeks before harvest)
[9] = Example 8, 10 gm with Glyphosine at one-fourth the label rate
[10] = Example 8, 10 gm without glyphosine
[11] = two sprays of 20 mM with Glyphosate at one-fourth the label rate
[12] = two sprays of 20 mM, without glyphosate

In the case of O=C(O)C=Cc1c(F)cccc1F [2,6-Difluorocinnamic Acid], the “Staining intensity Chitin” value (white-rot fungus [1]; [5]) is reported as 3, the “Staining intensity Lignin” value (white-rot fungus [1]; [5]) is reported as 5 and the “Staining intensity Chitin” value (white-rot fungus [1]; [6]) is reported as 5. The “Staining intensity Lignin” value (white-rot fungus [1]; [6]) was 4, the “Staining intensity Chitin” value (white-rot fungus [1]; [7]) was 3 and the “Staining intensity Lignin” value (white-rot fungus [1]; [7]) was 6. The “Staining intensity Chitin” value (white-rot fungus [1]; [8]) was 2, the “Staining intensity Lignin” value (white-rot fungus [1]; [8]) was 7 and the “Staining intensity Chitin” value (Soil microorganisms [2]) was 4. For the same molecule, the “Staining intensity Lignin” value (Soil microorganisms [2]) was 5, the “Staining intensity Chitin” value (Soil microorganisms [3]) was 6 and the “Staining intensity Lignin” value (Soil microorganisms [3]) was 5.
With O=Cc1ccc(O)cc1Cl [2-Chloro-4-hydroxybenzaldehyde] the “Staining intensity Chitin” value (white-rot fungus [1]; [9]) was 2, the “Staining intensity Lignin” value (white-rot fungus [1]; [9]) was 7 and the “Staining intensity Chitin” value (white-rot fungus [1]; [10]) was 3. The “Staining intensity Lignin” value (white-rot fungus [1]; [10]) was 6, the “Staining intensity Chitin” value (white-rot fungus [1]; [5]) was 4 and the “Staining intensity Lignin” value (white-rot fungus [1]; [5]) was 3. For the same molecule, the “Staining intensity Chitin” value (Soil microorganisms [2]) was 3, the “Staining intensity Lignin” value (Soil microorganisms [2]) was 6 and the “Staining intensity Chitin” value (Soil microorganisms [3]) was 3. The “Staining intensity Lignin” value (Soil microorganisms [3]) was 6.
With O=Cc1cc(Br)c(O)c(Br)c1 [3,5-Dibromo-4-hydroxybenzaldehyde] the “Staining intensity Chitin” value (white-rot fungus [1]; [5]) was 6 and the “Staining intensity Lignin” value (white-rot fungus [1]; [5]) was 5.
For O=C(O)C=Cc1cccc(Cl)c1 [3-Cholorcinnamic Acid, 3-Cholorcinnamic acid], the “Staining intensity Chitin” value (white-rot fungus [1]; [9]) was 2, the “Staining intensity Lignin” value (white-rot fungus [1]; [9]) was 7 and the “Staining intensity Chitin” value (white-rot fungus [1]; [10]) was 3. For the same molecule, the “Staining intensity Lignin” value (white-rot fungus [1]; [10]) was 5, the “Staining intensity Chitin” value (white-rot fungus [1]; [5]) was 7 and the “Staining intensity Lignin” value (white-rot fungus [1]; [5]) was 5. The “Staining intensity Chitin” value (white-rot fungus [1]; [6]) was 4, the “Staining intensity Lignin” value (white-rot fungus [1]; [6]) was 4 and the “Staining intensity Chitin” value (white-rot fungus [1]; [7]) was 2. The “Staining intensity Lignin” value (white-rot fungus [1]; [7]) was 6, the “Staining intensity Chitin” value (white-rot fungus [1]; [8]) was 1 and the “Staining intensity Lignin” value (white-rot fungus [1]; [8]) was 7. The “Staining intensity Chitin” value (Soil microorganisms [2]) was 3, the “Staining intensity Lignin” value (Soil microorganisms [2]) was 6 and the “Staining intensity Chitin” value (Soil microorganisms [3]) was 4. The “Staining intensity Lignin” value (Soil microorganisms [3]) was 7, the “Staining intensity Chitin” value (white-rot fungus [4]; [11]) was 2 and the “Staining intensity Lignin” value (white-rot fungus [4]; [11]) was 7. For the same molecule, the “Staining intensity Chitin” value (white-rot fungus [4]; [12]) was 3 and the “Staining intensity Lignin” value (white-rot fungus [4]; [12]) was 6.
For COC(=O)Nc1nc2ccccc2[nH]1 [Carbendazim, methyl-2-benzimidazole carbamate], the “Intensity of Chitin Stain” value (White rot fungus; Corn plant) was 2, the “Intensity of Lignin Stain” value (White rot fungus; Corn plant) was 8 and the “Intensity of Chitin Stain” value (White rot fungus; Tulip tree) was 1. For the same molecule, the “Intensity of Lignin Stain” value (White rot fungus; Tulip tree) was 8, the “Intensity of Chitin Stain” value (White rot fungus; White Pine tree) was 2 and the “Intensity of Lignin Stain” value (White rot fungus; White Pine tree) was 7.
O=C(O)C=Cc1ccccc1 [Cinnamic Acid, reference compound] was tested, and the “Staining intensity Chitin” value (white-rot fungus [1]; [5]) was 9, the “Staining intensity Lignin” value (white-rot fungus [1]; [5]) was 1 and the “Staining intensity Chitin” value (Soil microorganisms [2]) was 8. For the same molecule, the “Staining intensity Lignin” value (Soil microorganisms [2]) was 1, the “Staining intensity Chitin” value (Soil microorganisms [3]) was 9 and the “Staining intensity Lignin” value (Soil microorganisms [3]) was 0-1.
With O=C(O)CN(CP(=O)(O)O)CP(=O)(O)O [Glyphosine, reference compound] the “Effect on recalcitrance of lignin to biodegradation by white-rot fungi conferred by halogen-substituted precursors” value (white-rot fungus [1]; glyphosine at one fourth the label rate added to the modified precursor, sugar cane) was “increases the effectiveness”.
With CCCC1COC(Cn2cncn2)(c2ccc(Cl)cc2Cl)O1 (centres unmarked) [Propiconazole, 1-[[2-(2,4-dichlorophenyl)-4-propyl-1,3-dioxolan-2-yl]methyl]-1H-1,2,4-triazole] the “Intensity of Chitin Stain” value (White rot fungus; Corn plant) was 1, the “Intensity of Lignin Stain” value (White rot fungus; Corn plant) was 8 and the “Intensity of Chitin Stain” value (White rot fungus; Tulip tree) was 2. For the same molecule, the “Intensity of Lignin Stain” value (White rot fungus; Tulip tree) was 7, the “Intensity of Chitin Stain” value (White rot fungus; White Pine tree) was 1 and the “Intensity of Lignin Stain” value (White rot fungus; White Pine tree) was 8.
c1ccc2[nH]c(-c3cscn3)nc2c1 [Thiabendazole, 2-(4-thiazolyl)benzimidazole] was tested, and the “Intensity of Chitin Stain” value (White rot fungus; Corn plant) was 1, the “Intensity of Lignin Stain” value (White rot fungus; Corn plant) was 9 and the “Intensity of Chitin Stain” value (White rot fungus; Tulip tree) was 1. For the same molecule, the “Intensity of Lignin Stain” value (White rot fungus; Tulip tree) was 9, the “Intensity of Chitin Stain” value (White rot fungus; White Pine tree) was 2 and the “Intensity of Lignin Stain” value (White rot fungus; White Pine tree) was 8.
In the case of O=C(O)C(F)=Cc1ccccc1 [alpha-Fluorocinnamic Acid], the “Staining intensity Chitin” value (white-rot fungus [1]; [5]) is reported as 6.
With O=C(O)CNCP(=O)(O)O [glyphosate, Glyphosate, reference compound] the “Effect on effectiveness of halogen-substituted precursor molecules in reducing lignin biodegradation by white-rot fungi” value (white-rot fungus [4]; glyphosate at one-fourth the label rate added to the spray, corn) was “increases the effectiveness”.
